Data taken from patent US11708348B2, “Protease inhibitors for treatment of coronavirus infections” (The Scripps Research Institute, priority 2021, dated 2023).

Each molecule was assayed on SARS-CoV-2 strain USA-WA1/2020 (assay: microbe, parasite or virus in culture). Settings: Severe acute respiratory syndrome coronavirus 2, HeLa-ACE2, 24 h, HeLa-ACE2 cells, SARS-CoV-2 infection, 24 h; class symbols; read-out: EC50, uM (Hela).
Format: cell-based

**Q.** With CC(C)(C)C[C@H](NC(=O)C(=O)NC12CC(F)(C1)C2)C(=O)N[C@@H](C[C@@H]1CCNC1=O)C(=O)COC(F)(F)F [Compound 226, N1-((S)-4,4-dimethyl-1-oxo-1-(((S)-3-oxo-1-((S)-2-oxopyrrolidin-3-yl)-4-(trifluoromethoxy)butan-2-yl)amino)pentan-2-yl)-N2-(3-fluorobicyclo[1.1.1]-pentan-1-yl)oxalamide] as the molecule, how does the EC50 read?
**A.** The EC50 was under 0.05 µM.

**Q.** CC(C)C[C@H](NC(=O)C(=O)Nc1ccccc1C#N)C(=O)N[C@@H](C[C@@H]1CCNC1=O)C(=O)COc1c(F)c(F)cc(F)c1F [Compound 75, N1-(2-cyanophenyl)-N2-((S)-4-methyl-1-oxo-1-(((S)-3-oxo-1-((S)-2-oxopyrrolidin-3-yl)-4-(2,3,5,6-tetra-fluorophenoxy)butan-2-yl)amino)pentan-2-yl)oxalamide] was tested. Which EC50 did it give?
**A.** The EC50 was 0.05 to 0.2 µM.

**Q.** For O=C1NCC[C@H]1C[C@H](NC(=O)[C@@H]1[C@H]2CCC[C@H]2CN1C(=O)C12CC(C(F)F)(CO1)C2)C(=O)COC(F)(F)F [Compound 321, (1S,3aR,6aS)-2-(4-(difluoromethyl)-2-oxabicyclo[2.1.1]hexane-1-carbonyl)-N-((S)-3-oxo-1-((S)-2-oxopyrrolidin-3-yl)-4-(trifluoromethoxy)butan-2-yl)octahydrocyclopenta-[c]pyrrole-1-carboxamide], which EC50 is on record?
**A.** The EC50 was 0.05 to 0.2 µM.

**Q.** How did the EC50 turn out when CC[C@@H](O)C(=O)N[C@@H](CC(C)C)C(=O)N[C@@H](C[C@@H]1CCNC1=O)C(=O)COC(F)(F)F [Compound 369, (S)-2-((R)-2-hydroxybutanamido)-4-methyl-N-((S)-3-oxo-1-((S)-2-oxopyrrolidin-3-yl)-4-(trifluoromethoxy)butan-2-yl)pentanamide] was run?
**A.** The EC50 was 0.05 to 0.2 µM.

**Q.** How did the EC50 turn out when CC(C)C[C@H](NC(=O)C(=O)Nc1ccccc1F)C(=O)N[C@@H](C[C@@H]1CCCNC1=O)C(=O)COc1c(F)c(F)cc(F)c1F [Compound 129, N1-(2-fluorophenyl)-N2-((S)-4-methyl-1-oxo-1-(((S)-3-oxo-1-((S)-2-oxopiperidin-3-yl)-4-(2,3,5,6-tetrafluorophenoxy)butan-2-yl)amino)pentan-2-yl)oxalamide] was run?
**A.** The EC50 was under 0.05 µM.

**Q.** O=C1NCC[C@H]1C[C@H](NC(=O)[C@@H]1CC2(CC2)CN1C(=O)C(O)CC(C(F)(F)F)C(F)(F)F)C(=O)COC(F)(F)F (stereo partly drawn) [Compound 389, (6S)-N-((S)-3-oxo-1-((S)-2-oxopyrrolidin-3-yl)-4-(trifluoromethoxy)butan-2-yl)-5-(5,5,5-trifluoro-2-hydroxy-4-(trifluoromethyl)-pentanoyl)-5-azaspiro[2.4]heptane-6-carboxamide] was tested. Which EC50 did it give?
**A.** The EC50 was under 0.05 µM.

**Q.** Which EC50 does the source give for CC(C)C[C@H](NC(=O)C(=O)NC1CC1)C(=O)N[C@@H](C[C@@H]1CCNC1=O)C(=O)COC(F)(F)F [Compound 174, N1-cycl opropyl-N2-((S)-4-methyl-1-oxo-1-(((S)-3-oxo-1-((S)-2-oxopyrrolidin-3-yl)-4-(trifluoromethoxy)butan-2-yl)amino)pentan-2-yl)oxalamide] here?
**A.** Its EC50 is under 0.05 µM.

**Q.** For CC(C)C[C@@H](O)C(=O)N1C[C@@H]2CCC[C@@H]2[C@H]1C(=O)N[C@@H](C[C@@H]1CCNC1=O)C(=O)COC(F)(F)F [Compound 363, (1S,3aR,6aS)-2-((R)-2-hydroxy-4-methylpentanoyl)-N-((S)-3-oxo-1-((S)-2-oxopyrrolidin-3-yl)-4-(trifluoromethoxy)butan-2-yl)octahydrocyclo-penta[c]pyrrole-1-carboxamide], which EC50 is on record?
**A.** The EC50 was under 0.05 µM.

**Q.** CC(C)C[C@H](NC(=O)C12CC(C(F)F)(CO1)C2)C(=O)N[C@@H](C[C@@H]1CCNC1=O)C(=O)COC(F)(F)F [Compound 319, 4-(difluoromethyl)-N-((S)-4-methyl-1-oxo-1-(((S)-3-oxo-1-((S)-2-oxopyrrolidin-3-yl)-4-(trifluoromethoxy)butan-2-yl)amino)pentan-2-yl)-2-oxabicyclo-[2.1.1]hexane-1-carboxamide] was tested. Which EC50 did it give?
**A.** The EC50 was under 0.05 µM.

**Q.** With COCc1ccccc1NC(=O)C(=O)N[C@@H](CC(C)C)C(=O)N[C@@H](C[C@@H]1CCNC1=O)C(=O)COc1c(F)c(F)cc(F)c1F [Compound 143, N1-(2-(methoxymethyl)phenyl)-N2-((S)-4-methyl-1-oxo-1-(((S)-3-oxo-1-((S)-2-oxopyrrolidin-3-yl)-4-(2,3,5,6-tetrafluorophenoxy)butan-2-yl)amino)pentan-2-yl)oxalamide] as the molecule, how does the EC50 read?
**A.** Its EC50 is 0.05 to 0.2 µM.

**Q.** O=C(Nc1ccccc1)C(=O)N[C@@H](CC1CCCC1)C(=O)N[C@@H](C[C@@H]1CCNC1=O)C(=O)COc1c(F)c(F)cc(F)c1F [Compound 44, N1-((S)-3-cyclopentyl-1-oxo-1-(((S)-3-oxo-1-((S)-2-oxopyrrolidin-3-yl)-4-(2,3,5,6-tetrafluorophenoxy)butan-2-yl)amino)propan-2-yl)-N2-phenyloxalamide] was tested. Which EC50 did it give?
**A.** The EC50 was under 0.05 µM.

Same assay, conditions: Severe acute respiratory syndrome coronavirus 2, HeLa-ACE2, 24 h, HeLa-ACE2 cells, SARS-CoV-2 infection, 24 h; given as bound; read-out: EC50, uM (Hela)

**Q.** Which EC50 does the source give for CC1(C)C[C@@H](C(=O)N[C@@H](C[C@@H]2CCNC2=O)C(=O)COC(F)(F)F)N(C(=O)C(=O)NC2(C)CC2)C1 [Compound 540, (S)-4,4-dimethyl-1-(2-((1-methylcyclo-propyl)amino)-2-oxoacetyl)-N-((S)-3-oxo-1-((S)-2-oxopyrrolidin-3-yl)-4-(trifluoromethoxy)butan-2-yl)pyrrolidine-2-carboxamide] here?
**A.** The EC50 was over 1 µM.

**Q.** How did the EC50 turn out when C[C@@H]1C[C@H]2[C@H](C[C@@H](C(=O)N[C@@H](C[C@@H]3CCNC3=O)C(=O)COC(F)(F)F)N2C(=O)C(=O)NC(C)(C)C)O1 [Compound 551, (2R,3aS,5S,6aS)-4-(2-(tert-butylamino)-2-oxoacetyl)-2-methyl-N-((S)-3-oxo-1-((S)-2-oxopyrrolidin-3-yl)-4-(trifluoromethoxy)butan-2-yl)hexahydro-2H-furo[3,2-b]pyrrole-5-carboxamide] was run?
**A.** The EC50 was over 1 µM.

Same assay, conditions: Severe acute respiratory syndrome coronavirus 2, HeLa-ACE2, 24 h, HeLa-ACE2 cells, SARS-CoV-2 infection, 24 h; read-out: EC50, uM (Hela)

**Q.** O=C(Nc1ccccc1F)C(=O)N1C[C@@H]2CC[C@@H]2[C@H]1C(=O)N[C@@H](C[C@@H]1CCNC1=O)C(=O)COC(F)(F)F [Compound 563, (1S,2S, 5R)-3-(2-((2-fluorophenyl)amino)-2-oxoacetyl)-N-((S)-3-oxo-1-((S)-2-oxopyrrolidin-3-yl)-4-(trifluoromethoxy)butan-2-yl)-3-azabicyclo-[3.2.0]heptane-2-carboxamide] was tested. Which EC50 did it give?
**A.** Its EC50 is 0.05 to 0.2 µM.

**Q.** With CC(C)(O)CC(=O)N1CC2(CC2)C[C@H]1C(=O)N[C@@H](C[C@@H]1CCNC1=O)C(=O)COC(F)(F)F [Compound 717, (S)-5-(3-hydroxy-3-methylbutanoyl)-N-((S)-3-oxo-1-((S)-2-oxopyrrolidin-3-yl)-4-(trifluoromethoxy)butan-2-yl)-5-azaspiro[2.4]heptane-6-carboxamide] as the molecule, how does the EC50 read?
**A.** Its EC50 is 0.05 to 0.2 µM.

**Q.** Which EC50 does the source give for O=C1NCC[C@H]1C[C@H](NC(=O)[C@@H]1[C@H]2CCC[C@H]2CN1C(=O)c1noc2ccccc12)C(=O)COC(F)(F)F [Compound 557, (1S,3aR,6aS)-2-(benzo[d]isoxazole-3-carbonyl)-N-((S)-3-oxo-1-((S)-2-oxopyrrolidin-3-yl)-4-(trifluoromethoxy)butan-2-yl)octahydro-cyclopenta[c]pyrrole-1-carboxamide] here?
**A.** Its EC50 is under 0.05 µM.

**Q.** For CCC[C@@H](O)C(=O)N1CC2(CC2)C[C@H]1C(=O)N[C@@H](C[C@@H]1CCNC1=O)C(=O)COC(F)(F)F [Compound 766, (S)-5-((R)-2-hydroxypentanoyl)-N-((S)-3-oxo-1-((S)-2-oxopyrrolidin-3-yl)-4-(trifluoromethoxy)butan-2-yl)-5-azaspiro[2.4]heptane-6-carboxamide], which EC50 is on record?
**A.** The EC50 was 0.05 to 0.2 µM.
